The test system of assay [1] is clinically freshly isolated MRSAs. The experiment in a line: Anti-MRSA activity (MIC), 11 clinically freshly isolated MRSA strains. The conditions noted are these: for MIC: Staphylococcus aureus, MRSA. Type of assay: cell-based, Staphylococcus aureus. The procedure: (§1) Antimicrobial activity of JK-1 was determined by measuring the minimum growth inhibition concentration (MIC) as follows.
(§2) MIC values of JK against a variety of microorganisms were determined on a Mueller-Hinton broth containing 0.2% glucose according to the rule of Japanese Society of Chemotherapy (Kouseibussitsu Taiyo (The Essentials of Antibiotics), 4th ed., University of Tokyo Press, 1992).
(§3) JK-1 was dissolved in methanol, and diluted with the above medium, repeating 2-fold dilution starting from 1 mg/ml. Test microorganisms were added to the above medium to give a test solution of 1×10^6 cells/ml. The JK solution (20 μl) and the test solution (180 μl) were dispensed in a 96 well microplate and incubated at 37° C. After 24 hours, either positive or negative growth was confirmed visually, and the MIC value was caluculated.
Among gram-positive bacteria, there was no difference between MIC values, especially, of Staphylococcus aureus and its multi-drug resistant strain MRSA (Table 5) which have become a clinical problem. In this situation, the antimicrobial activity of JK-1 was compared to that of commercially available 3 drugs in 11 strains of clinically freshly isolated MRSAs.

A further assay has as its system Nocardia asteroides. The experiment in a line: Antimicrobial activity (MIC, broth dilution). Conditions: 24 hours, 37° C. In kind it is cell-based. How it is done:
as §1, §2, §3
On the technique in general: Dilution methods test growth across graded concentrations, often in twofold steps.

For a further assay, the system named is Bacillus subtilis PCII89. The experiment in a line: Antimicrobial activity (MIC, broth dilution). Conditions: Bacillus subtilis PCII89, 24 hours, 37° C. Type of assay: cell-based. The procedure:
as §1, §2, §3

The test system of the next assay is Micrococcus luteus. The experiment in a line: Antimicrobial activity (MIC, broth dilution). Type of assay: cell-based. The conditions noted are these: 24 hours, 37° C. How it is done:
as §1, §2, §3

The test system of a further assay is Corynebacterium xerosis. The experiment in a line: Antimicrobial activity (MIC, broth dilution). Type of assay: cell-based. The conditions noted are these: 24 hours, 37° C. The procedure:
as §1, §2, §3

Assay [2] concerns Staphylococcus aureus 209P. The experiment in a line: Antimicrobial activity (MIC, broth dilution). In kind it is cell-based. Conditions: 24 hours, 37° C. The procedure:
as §1, §2, §3

Assay [3] has as its system Escherichia coli NIH JC-2. The experiment in a line: Antimicrobial activity (MIC, broth dilution). The conditions noted are these: Escherichia coli NIH JC-2, 24 hours, 37° C. Type of assay: cell-based. The procedure: as §1, §2, §3
The subject of another assay is Candida albicans. The experiment in a line: Antimicrobial activity (MIC, broth dilution). Type of assay: cell-based. The conditions noted are these: 24 hours, 37° C. How it is done:
as §1, §2, §3

A further assay has as its system Gordonia bronchialis. The experiment in a line: Antimicrobial activity (MIC, broth dilution). The conditions noted are these: 24 hours, 37° C. In kind it is cell-based. The procedure: as §1, §2, §3
In another assay the test system is Asperigillus niger. The experiment in a line: Antimicrobial activity (MIC, broth dilution). In kind it is cell-based. The conditions noted are these: 24 hours, 37° C. How it is done: as §1, §2, §3
Another assay concerns gram-positive bacteria. The experiment in a line: Antimicrobial activity (MIC), summary for gram-positive bacteria. The conditions noted are these: range over the gram-positive bacteria of Table 5. In kind it is cell-based. How it is done: as §1, §2, §3
The subject of assay [4] is gram-negative bacteria and fungi. The experiment in a line: Antimicrobial activity (MIC), summary for gram-negative bacteria and fungi. Conditions: summary of Table 5. Type of assay: cell-based. The procedure: as §1, §2, §3
For the next assay, the system named is MRSA. The experiment in a line: Antimicrobial activity (MIC, broth dilution). In kind it is cell-based, Staphylococcus aureus. The conditions noted are these: 24 hours, 37° C. The procedure:
as §1, §2, §3

Assay [5] concerns Actinomadura pelletieri IFM0903. The experiment in a line: Sensitivity of the producing strain against antibiotics. The conditions noted are these: Actinomadura pelletieri IFM0903, strain characterisation. In kind it is cell-based.

This is an account of results in patent US6693085B2, “Macrolide compound JK” (Higeta Shoyu Co., Ltd., priority 2000, dated 2004).

The structures appear in SMILES notation. ≈ marks a conversion by molar mass, not a printed value. Read-outs that look alike come from different tables or passages of the source. Where only a bound is given, the exact number is not on record here.

For the compound `CCCC1C=CC2C=C(C)C(OC3CC(N)C(NC(=O)c4c(O)ccc(Cl)c4C)C(C)O3)CC=CC3C(CC)=CC4C(O)C(O)CC(C)C4C3(C)C(=O)C3=C(O)C2(C1)OC3=O` (stereo not shown) [JK-2], the MIC values in [1] (MRSA strain 3666) was 0.2 µg/mL (≈ 0.232 µM); in [1] (MRSA strain 3667) it was 0.2 µg/mL (≈ 0.232 µM); in assay [1] (MRSA strain 3668), 0.2 µg/mL (≈ 0.232 µM); in assay [1] (MRSA strain 3669) it was 0.2 µg/mL (≈ 0.232 µM); in [1] (MRSA strain 3670), 0.78 µg/mL (≈ 0.903 µM); in [1] (MRSA strain 3671) it was 0.2 µg/mL (≈ 0.232 µM). Moreover, the MIC values in [1] (MRSA strain S-1) turned out to be 0.78 µg/mL (≈ 0.903 µM); in assay [1] (MRSA strain S-2), 0.78 µg/mL (≈ 0.903 µM); in assay [1] (MRSA strain S-3) it was 0.39 µg/mL (≈ 0.452 µM); in [1] (MRSA strain S-4), 0.39 µg/mL (≈ 0.452 µM); in assay [1] (MRSA strain S-5), 0.2 µg/mL (≈ 0.232 µM).

Turning to `CCCC1C=CC2C=C(C)C(OC3CC(NC)C(NC(=O)c4c(O)ccc(Cl)c4C)C(C)O3)CC=CC3C(CC)=CC4C(O)C(O)CC(C)C4C3(C)C(=O)C3=C(O)C2(C1)OC3=O` (stereo not shown) [JK-1], the “activity relative to vancomycin” value in assay [1] (11 strains of clinically freshly isolated MRSAs) is “about 6 times”. The MIC values in assay [1] (MRSA strain 3666) came to 0.2 µg/mL (≈ 0.228 µM); in assay [1] (MRSA strain 3667), 0.2 µg/mL (≈ 0.228 µM); in assay [1] (MRSA strain 3668) it was 0.2 µg/mL (≈ 0.228 µM); in assay [1] (MRSA strain 3669) it was 0.2 µg/mL (≈ 0.228 µM); in [1] (MRSA strain 3670), 1.56 µg/mL (≈ 1.78 µM); in [1] (MRSA strain 3671) it was 0.1 µg/mL (≈ 0.114 µM). In addition, the MIC values in assay [1] (MRSA strain S-1) came to 0.78 µg/mL (≈ 0.889 µM); in assay [1] (MRSA strain S-2), 0.39 µg/mL (≈ 0.444 µM); in assay [1] (MRSA strain S-3), 0.39 µg/mL (≈ 0.444 µM); in [1] (MRSA strain S-4), 0.2 µg/mL (≈ 0.228 µM); in assay [1] (MRSA strain S-5) it was 0.2 µg/mL (≈ 0.228 µM); in the assay with Nocardia asteroides it was 0.05 µg/mL (≈ 0.057 µM). In addition, the MIC values was 0.39 µg/mL (≈ 0.444 µM) in the assay with Bacillus subtilis PCII89; 0.05 µg/mL (≈ 0.057 µM) with Micrococcus luteus; 0.025 µg/mL (≈ 0.0285 µM) in the assay on Corynebacterium xerosis; 0.05 µg/mL (≈ 0.057 µM) in assay [2]; over 100 µg/mL in assay [3]; over 100 µg/mL against Candida albicans. Moreover, the MIC values against Gordonia bronchialis is 0.39 µg/mL (≈ 0.444 µM); with Asperigillus niger, over 100 µg/mL; with MRSA, 0.05 µg/mL (≈ 0.057 µM). Further, in the assay on gram-positive bacteria, the “MIC values against gram-positive bacteria” value lay in the range of 0.025 to 0.39 µg/mL. Besides, the “antimicrobial activity against gram-negative bacteria and fungi” value in assay [4] is reported as “No antimicrobial activity”.

With `CC1(C)S[C@@H]2[C@H](NC(=O)Cc3ccccc3)C(=O)N2[C@H]1C(=O)O` [penicillin-G], the MIC values in assay [1] (MRSA strain 3666), in assay [1] (MRSA strain 3667), in assay [1] (MRSA strain 3668), in assay [1] (MRSA strain 3669), in assay [1] (MRSA strain 3670) and in assay [1] (MRSA strain 3671) was over 100 µg/mL in each case. For the same compound, the MIC values in assay [1] (MRSA strain S-1), in [1] (MRSA strain S-2), in assay [1] (MRSA strain S-3), in assay [1] (MRSA strain S-4) and in assay [1] (MRSA strain S-5) was over 100 µg/mL in each case.

In the case of `CC[C@H]1OC(=O)[C@H](C)[C@@H](O[C@H]2C[C@@](C)(OC)[C@@H](O)[C@H](C)O2)[C@H](C)[C@@H](O[C@@H]2O[C@H](C)C[C@H](N(C)C)[C@H]2O)[C@](C)(O)C[C@@H](C)C(=O)[C@H](C)[C@@H](O)[C@]1(C)O` [erythromycin], the minimal inhibitory concentration (MIC) in assay [1] (MRSA strain 3666, read-out: MIC values) was over 100 µg/mL; in assay [1] (MRSA strain 3667, read-out: MIC values), over 100 µg/mL; in [1] (MRSA strain 3668, read-out: MIC values), over 100 µg/mL; in assay [1] (MRSA strain 3669, read-out: MIC values), over 100 µg/mL; in [1] (MRSA strain 3670, read-out: MIC values), over 100 µg/mL; in assay [1] (MRSA strain 3671, read-out: MIC values) it was over 100 µg/mL. Further, the minimal inhibitory concentration (MIC) in [1] (MRSA strain S-1, read-out: MIC values) is over 100 µg/mL; in [1] (MRSA strain S-2, read-out: MIC values), 12.5 µg/mL (≈ 17 µM); in assay [1] (MRSA strain S-3, read-out: MIC values), over 100 µg/mL; in [1] (MRSA strain S-4, read-out: MIC values) it was over 100 µg/mL; in assay [1] (MRSA strain S-5, read-out: MIC values), over 100 µg/mL.

`NC[C@H]1O[C@H](O[C@H]2[C@H](O)[C@@H](O[C@H]3O[C@H](CO)[C@@H](O)[C@H](N)[C@H]3O)[C@H](N)C[C@@H]2N)[C@H](N)C[C@@H]1O` [Tobramycin]: in [5], the “Sensitivity against Antibiotics” value is “positive”.

On to `O=c1[nH]cc(F)c(=O)[nH]1` [Compound 5-FU, 5-FU], for which the “Sensitivity against Antibiotics” value in [5] was “positive”.

For the compound `CN[C@H](CC(C)C)C(=O)N[C@H]1C(=O)N[C@@H](CC(N)=O)C(=O)N[C@H]2C(=O)N[C@H]3C(=O)N[C@H](C(=O)N[C@H](C(=O)O)c4cc(O)cc(O)c4-c4cc3ccc4O)[C@H](O)c3ccc(c(Cl)c3)Oc3cc2cc(c3O[C@@H]2O[C@H](CO)[C@@H](O)[C@H](O)[C@H]2O[C@H]2C[C@](C)(N)[C@H](O)[C@H](C)O2)Oc2ccc(cc2Cl)[C@H]1O` [vancomycin], the MIC in assay [1] (read-out: MIC values, MRSA strain 3666) is 1.56 µg/mL (≈ 1.08 µM); in assay [1] (read-out: MIC values, MRSA strain 3667), 3.13 µg/mL (≈ 2.16 µM); in assay [1] (read-out: MIC values, MRSA strain 3668) it was 1.56 µg/mL (≈ 1.08 µM); in [1] (read-out: MIC values, MRSA strain 3669), 0.78 µg/mL (≈ 0.538 µM); in assay [1] (read-out: MIC values, MRSA strain 3670), 0.78 µg/mL (≈ 0.538 µM); in assay [1] (read-out: MIC values, MRSA strain 3671), 0.78 µg/mL (≈ 0.538 µM). The MIC in assay [1] (read-out: MIC values, MRSA strain S-1) worked out at 6.25 µg/mL (≈ 4.31 µM); in assay [1] (read-out: MIC values, MRSA strain S-2), 3.13 µg/mL (≈ 2.16 µM); in [1] (read-out: MIC values, MRSA strain S-3) it was 1.56 µg/mL (≈ 1.08 µM); in assay [1] (read-out: MIC values, MRSA strain S-4), 1.56 µg/mL (≈ 1.08 µM); in [1] (read-out: MIC values, MRSA strain S-5), 1.56 µg/mL (≈ 1.08 µM).

Usually MIC stands for the lowest concentration that inhibits growth of the organism.
